According to patent publication US6417167B1, “Lyophilized compositions containing shingoglycolipid and process for preparing them” (Kirin Beer Kabushiki Kaisha, priority 1997, dated 2002):

Tests used:
Assay type in all cases: physicochemical
[1] = Optimal amount of Polysorbate 20: solubility of solutions after storage, by naked eye; set-up: key: +: not dissolved (or deposited); −: dissolved; details: KRN7000 200 μg/ml, stored as solution 25° C.
Method: Next, 20 mg of the active component (KRN7000) was weighed and stirred in 100 ml of the Polysorbate solutions having a variety of concentrations in a heated bath at 80° C. for 20 minutes in order to form a solution. After cooling with running water, the mixture was filtered through a 0.22 μm filter, and transparent colorless glass vials having a volume of 5 ml were charged with a 2 ml portion of each of a variety of solutions and sealed up.
These samples were stored at 25° C. for 2 weeks, and judged of their solubility. The samples judged in solution were further stored, and judged again of their solubility after 1 month.
(§1) The solubility was judged by cleaning the outside of the vial and placing it beneath the white light source in the darkroom for observation with naked eye at the position of a luminous intensity of about 5,000 lux. When the sample was clear with no precipitates, it was judged that the active component was dissolved.
In the table, the variations with the passage of time after storage represent the solubility when stored in the form of solution.

[2] = Excipient appropriate to lyophilization 1: re-solubility immediately after lyophilization; details: KRN7000 200 μg/ml, Polysorbate 20 0.5%
Method: A variety of monosaccharides and disaccharides were used for examination of excipients of the lyophilized preparation. In this context, the active component (KRN7000) was set at the concentration of 200 μg/ml, and Polysorbate 20 which is used only in a limited amount from the viewpoint of safety was set at the concentration of 0.5% in the following examination.
(§2) First, Polysorbate 20 was dissolved in distilled water in a concentration of 0.5%, and the saccharides were dissolved in such concentrations as listed in Table 6. Next, 20 mg of the active component (KRN7000) was weighed and stirred in 100 ml of the solvents in a heated bath to 80° C. for 20 minutes in order to form a solution. After cooling with running water, the mixture was filtered through a 0.22 μm filter, and transparent colorless glass vials having a volume of 5 ml were charged with a 1 ml portion of each of a variety of solutions thus obtained and subjected to lyophilization. Lyophilization was carried out under the condition of preliminary freezing at −40° C. for 2 hours and drying at −20° C. for 24 hours, 10° C. for 12 hours, and finally at 25° C. for 5 hours to give the lyophilized product. The degree of vacuum was set at 0.1 Torr or less during drying step.
After the lyophilization step, the lyophilized composition was reconstituted in 1 ml of distilled water for injection, left standing for 30 minutes, and solubility was judged when the foams generated on reconstitution disappeared.
as §1, with “in a” for “in the”

[3] = Additives for improving re-solubility during storage, sucrose as excipient; details: lyophilized, Polysorbate 20 0.5%, Sucrose 9.6%
Method: as §2, with “sucrose and a variety of additives” for “the saccharides were dissolved in”, “9.” for “6.”
After the lyophilization step, the lyophilized composition thus obtained was stored at 25° C. or 50° C. , or at both of these temperatures. After storage at 25° C. for 1 month or at 50° C. for 3 days, the lyophilized composition was reconstituted in 1 ml of distilled water for injection, left standing for 30 minutes, and solubility was judged when the foams generated on reconstitution disappeared. The samples judged in solution were further stored, and judged again of their solubility after storage at 25° C. for 4 months or at 50° C. for 2 weeks.
as §1, with “in a” for “in the”

With `CCCCCCCCCCCCCCCCCCCCCCCCCC(=O)N[C@@H](CO[C@H]1O[C@H](CO)[C@H](O)[C@H](O)[C@H]1O)[C@H](O)[C@H](O)CCCCCCCCCCCCCC` [KRN7000, (2S,3S,4R)-1-(α-D-galactopyranosyloxy)-2-hexacosanoylamino-3,4-octadecanediol] the “Variation with the passage of time after storage (by naked eye)” value (from here on “Variation with the passage of time”) ([1]; Polysorbate 20 0.1%, 2 weeks) was “+”, the “Variation with the passage of time” value ([1]; Polysorbate 20 0.2%, 2 weeks) was “+” and the “Variation with the passage of time” value ([1]; Polysorbate 20 0.3%, 1 month) was “+”. For the same molecule, the “Variation with the passage of time” value ([1]; Polysorbate 20 0.3%, 2 weeks) was “−”, the “Variation with the passage of time” value ([1]; Polysorbate 20 0.5%, 1 month) was “+” and the “Variation with the passage of time” value ([1]; Polysorbate 20 0.5%, 2 weeks) was “−”. For the same molecule, the “Variation with the passage of time” value ([1]; Polysorbate 20 1.0%, 1 month) was “+”, the “Variation with the passage of time” value ([1]; Polysorbate 20 1.0%, 2 weeks) was “−” and the “Variation with the passage of time” value ([1]; Polysorbate 20 2.0%, 1 month) was “+”. The “Variation with the passage of time” value ([1]; Polysorbate 20 2.0%, 2 weeks) was “−”, the “Variation with the passage of time” value ([1]; Polysorbate 20 4.0%, 1 month) was “+” and the “Variation with the passage of time” value ([1]; Polysorbate 20 4.0%, 2 weeks) was “−”. The “Variation with the passage of time” value ([1]; Polysorbate 20 8.0%, 1 month) was “+”, the “Variation with the passage of time” value ([1]; Polysorbate 20 8.0%, 2 weeks) was “−” and the “Re-solubility immediately after lyophilization” value (shortened to “Re-solubility immediately”) ([2]; excipient Fructose 5%) was “+ (not dissolved (or deposited))”. The “Re-solubility immediately” value ([2]; excipient Fructose 10%) was “+ (not dissolved (or deposited))”, the “Re-solubility immediately” value ([2]; excipient Glucose 5%) was “− (dissolved)” and the “Re-solubility immediately” value ([2]; excipient Glucose 10%) was “+ (not dissolved (or deposited))”. The “Re-solubility immediately” value ([2]; excipient Lactose 5%) was “+ (not dissolved (or deposited))”, the “Re-solubility immediately” value ([2]; excipient Lactose 10%) was “+ (not dissolved (or deposited))” and the “Re-solubility immediately” value ([2]; excipient Maltose 1.5%) was “+ (not dissolved (or deposited))”. The “Re-solubility immediately” value ([2]; excipient Maltose 3%) was “+ (not dissolved (or deposited))”, the “Re-solubility immediately” value ([2]; excipient Mannitol 5%) was “+ (not dissolved (or deposited))” and the “Re-solubility immediately” value ([2]; excipient Mannitol 10%) was “− (dissolved)”. For the same molecule, the “Re-solubility immediately” value ([2]; excipient Sorbitol 5%) was “+ (not dissolved (or deposited))”, the “Re-solubility immediately” value ([2]; excipient Sorbitol 10%) was “+ (not dissolved (or deposited))” and the “Re-solubility immediately” value ([2]; excipient Sucrose 4.8%) was “− (dissolved)”. The “Re-solubility immediately” value ([2]; excipient Sucrose 9.6%) was “− (dissolved)”, the “Re-solubility immediately” value ([2]; excipient Xylitol 4.3%) was “+ (not dissolved (or deposited))” and the “Re-solubility immediately” value ([2]; excipient Xylitol 8.6%) was “+ (not dissolved (or deposited))”. For the same molecule, the “Re-solubility after storage (by naked eye)” value (shortened to “Re-solubility after storage”) ([3]; Arginine, 0.1%, 50° C., 3 days) was “+ (not dissolved (or deposited))”, the “Re-solubility after storage” value ([3]; Glycerol, 1%, 25° C., 1 month) was “+ (not dissolved (or deposited))” and the “Re-solubility after storage” value ([3]; Glycine, 0.1%, 50° C., 3 days) was “+ (not dissolved (or deposited))”. For the same molecule, the “Re-solubility after storage” value ([3]; Glycine, 1%, 50° C., 3 days) was “+ (not dissolved (or deposited))”, the “Re-solubility after storage” value ([3]; Histidine, 2%, 50° C., 2 weeks) was “− (dissolved)” and the “Re-solubility after storage” value ([3]; Histidine, 2%, 50° C., 3 days) was “− (dissolved)”. For the same molecule, the “Re-solubility after storage” value ([3]; Pluronic F68, 0.1%, 25° C., 1 month) was “− (dissolved)”, the “Re-solubility after storage” value ([3]; Pluronic F68, 0.1%, 25° C., 4 month) was “+ (not dissolved (or deposited))” and the “Re-solubility after storage” value ([3]; Pluronic F68, 1%, 25° C., 1 month) was “− (dissolved)”. For the same molecule, the “Re-solubility after storage” value ([3]; Pluronic F68, 1%, 25° C., 4 month) was “+ (not dissolved (or deposited))”, the “Re-solubility after storage” value ([3]; Propylene glycol, 1%, 25° C., 1 month) was “+ (not dissolved (or deposited))” and the “Re-solubility after storage” value ([3]; Sodium deoxycholate, 0.1%, 25° C., 1 month) was “− (dissolved)”. For the same molecule, the “Re-solubility after storage” value ([3]; Sodium deoxycholate, 0.1%, 25° C., 4 month) was “+ (not dissolved (or deposited))”, the “Re-solubility after storage” value ([3]; Sodium deoxycholate, 1%, 25° C., 1 month) was “− (dissolved)” and the “Re-solubility after storage” value ([3]; Sodium deoxycholate, 1%, 25° C., 4 month) was “− (dissolved)”. For the same molecule, the “Re-solubility after storage” value ([3]; Sodium deoxycholate, 1%, 50° C., 2 weeks) was “− (dissolved)”, the “Re-solubility after storage” value ([3]; Sodium deoxycholate, 1%, 50° C., 3 days) was “− (dissolved)” and the “Re-solubility after storage” value ([3]; no additive, 25° C., 1 month) was “− (dissolved)”. For the same molecule, the “Re-solubility after storage” value ([3]; no additive, 25° C., 4 month) was “+ (not dissolved (or deposited))” and the “Re-solubility after storage” value ([3]; no additive, 50° C., 3 days) was “+ (not dissolved (or deposited))”.
